Test results: patent US20210186930A1, “Methods of Treating Renal Disease Associated With Chronic Kidney Disease Such as Alport Syndrome” (UNIVERSITY OF MIAMI, priority 2018, published 2021)
“Also recorded” adds a separate entry of the source.

Tests used:
[1] = tested on: Col4a3−/− mice; assay: Renal function in Col4a3-/- mice treated with ezetimibe, ramipril or both (Example 1, FIG. 5); assay type: in vivo, mouse
From the text: Albumin/creatinine ratio: All albuminuria values are expressed as μg albumin/mg creatinine. Albumin/creatinine determined by ELISA (Bethyl Laboratories) for albumin detection and a biochemical assay based on the Jaffe method for creatinine detection (Stanbio) as previously described. Serology: Immediately prior to sacrifice, a blood sample was collected for the determination of BUN and lipid panel analysis in the comparative laboratory core facility of the University of Miami. Serum creatinine was determined by tandem mass spectrometry (UAB-UCSD O'Brien Core Center, University of Alabama). The following experiment was performed to investigate which treatment, ezetimibe (EZ), ramipril (Ramp) or the combination of both drugs (EZ+Ramp), would best preserve renal function in Col4a3 knockout mice, all drugs were administered to 4-week-old Col4a3−/− mice for 4 weeks as follows: ezetimibe (Ez) was orally administered at a concentration of 5 mg/kg BW, ramipril was added to the drinking water at a concentration that would lead to a daily ramipril uptake of 10 mg/kg BW. All mice were sacrificed at 8 weeks of age. The following four groups of mice were analyzed: Col4a3^+/+, Col4a3^−/−+Ez, Col4a3^−/−+Ramp and Col4a3^−/−+Ez+Ramp.

[2] = tested on: Col4a3−/− mice; assay: Mesangial expansion (PAS) and renal fibrosis (Picrosirius Red) in Col4a3-/- mice (Example 3, FIG. 6); assay type: in vivo, mouse; settings: treated vs untreated Col4a3−/− mice; ezetimibe 5 mg/kg, ramipril 10 mg/kg, 4 weeks
Procedure: Assessment of mesangial expansion: Periodic acid-Schiff (PAS) staining of 4 μm-thick tissue sections was performed using a standard protocol. Twenty glomeruli per section were analyzed for mesangial expansion by semi quantitative analysis (scale 0-4) performed by two blinded independent investigators.
Picrosirius red staining: Paraffin-embedded sections (4 μm thick) were deparaffinized with xylene and a graded alcohol series. Sections were rinsed for 5 min in distilled water, stained for 1 hour with picrosirius red in saturated aqueous picric acid, examined under a light microscope and photomicrographs were taken. Histological images were visualized using a light microscope (Olympus BX 41, Tokyo, Japan) at 40× magnification and analyzed using Image J software.
The following experiment was performed to investigate which treatment, ezetimibe (EZ), ramipril (Ramp) or the combination of both drugs (EZ+Ramp), would best preserve renal function in Col4a3 knockout mice, all drugs were administered to 4-week-old Col4a3−/− mice for 4 weeks as follows: ezetimibe (Ez) was orally administered at a concentration of 5 mg/kg BW, ramipril was added to the drinking water at a concentration that would lead to a daily ramipril uptake of 10 mg/kg BW. All mice were sacrificed at 8 weeks of age. The following four groups of mice were analyzed: Col4a3^+/+, Col4a3^−/−+Ez, Col4a3^−/−+Ramp and Col4a3^−/−+Ez+Ramp.
PAS staining was performed to detect and quantify mesangial expansion, Picrossirius Red staining to detect and quantify renal fibrosis in treated compared to untreated Col4a3^−/− mice. […] Representative images for PAS staining are shown in FIG. 6A and of Picrosirius Red staining to detect fibrosis in […]. Bar graph quantifications for both are shown in FIGS. 6C and 6D, respectively.

[3] = tested on: Col4a3−/− mice; assay: Renal cortex lipid content in Col4a3-/- mice (Example 4, FIG. 7); assay type: in vivo, mouse; settings: treated vs untreated Col4a3−/− mice; ezetimibe 5 mg/kg, ramipril 10 mg/kg, 4 weeks
Procedure: Determination of cholesterol content in kidney cortex: Tissue from kidney cortexes was homogenized in hypotonic buffer (10 mM HEPES pH7.0, 15 mM KCl, 1 mM MgCl2, 10 mM phosphatase inhibitors). Lipids from 100 μl of the homogenate were extracted with 1 ml of hexane:isopropanol (3:2, v/v), dried and reconstituted in 100 μl of isopropanol-NP40 (9:1, v/v). Tissue fractions not soluble in the organic solvent, were further dried, reconstituted in 8 M urea, and assayed for protein concentration using Pierce BCA protein assay kit (ThermoFisher Scientific, MA, USA). Total cholesterol from lipid extracts was determined by the enzymatic method as previously described (Robinet, P., Wang, Z., Hazen, S. L. & Smith, J. D. A simple and sensitive enzymatic method for cholesterol quantification in macrophages and foam cells. Journal of lipid research 51, 3364-3369, 2010). Briefly, endogenous peroxides present were eliminated by incubating samples and standards with catalase (Sigma-Aldrich, MO, USA), 45 U/ml final concentration, for 15 min at 37° C. […] The plates were incubated at 37° C. for 30 min and fluorescence was read at 530 nm (Ex) and 580 nm (Em) in a plate reader (SpectraMax M5, Molecular Devices, CA, USA). Cholesteryl esters (CE) quantification was based on the method described from Toshimi M, et al. Briefly, 25 μl of samples was mixed with 150 μl of free cholesterol decomposition reagent (45 U/ml catalase, 1 U/ml cholesterol oxidase) and incubated 2-4 h at 37° C., and then the final volume was brought up to 250 μl prior to determining free and total cholesterol remaining. Total cholesterol remaining was determined by mixing 50 μl of end product reaction with 50 μl of reagent A, as described above. Free cholesterol remaining was determined similarly, but without including cholesterol esterase in the reagent. CE was calculated by the formula CE=(TC−FC)×DF, where TC is the total cholesterol remaining, FC the free cholesterol remaining and DF the dilution factor, in this case, 10. Lipid content: Oil Red 0 staining was performed on frozen tissue sections and triglyceride content was determined on snap frozen kidney tissue as described above. The following experiment was performed to investigate which treatment, ezetimibe (EZ), ramipril (Ramp) or the combination of both drugs (EZ+Ramp), would best preserve renal function in Col4a3 knockout mice, all drugs were administered to 4-week-old Col4a3−/− mice for 4 weeks as follows: ezetimibe (Ez) was orally administered at a concentration of 5 mg/kg BW, ramipril was added to the drinking water at a concentration that would lead to a daily ramipril uptake of 10 mg/kg BW. All mice were sacrificed at 8 weeks of age. The following four groups of mice were analyzed: Col4a3^+/+, Col4a3^−/−+Ez, Col4a3^−/−+Ramp and Col4a3^−/−+Ez+Ramp.

[4] = cited from earlier work
[5] = cited from earlier work; remark: listed apart in the source
[6] = tested on: human podocytes; assay: Collagen treatment of human podocytes: lipid content and free fatty acid uptake (FIG. 1); assay type: cell-based
Procedure: (§1) Differentiated human podocytes were serum starved for 16 hours followed by 18 hours treatment with 50 μg/mL collagen I (Corning), collagen II (Discoverx), and collagen IV (Sigma Aldrich)
Lipid content determination: Following collagen treatment, podocyte lipid content was assessed after fixation with PFA and staining with Bodipy 493/503 and Cell Mask Blue (Invitrogen). The Opera High Content Screening system and Acapella Image Analysis software was used to determine the number of Bodipy 493/503 positive lipid droplets per cell. Triglyceride content was assessed using the Triglyceride Quantification Kit (Cell Biolabs) following manufacturer instructions and normalizing to cell protein content using the BCA method.
Free fatty acid uptake was assessed using the fluorometric free fatty acid uptake Kit (Abcam) in Ctrl and Col I treated podocytes after 1 hour serum starvation. The uptake of FFA was analyzed using a fluorimeter (SpectraMax5, […]).

[7] = biological target: T1, DDR1 (Homo sapiens, UniProt Q08345); assay: DDR1 activation in human podocytes treated with collagen (FIG. 2); assay type: cell-based
T1 construct: Differentiated human podocytes were serum starved for 16 hours followed by 18 hours treatment with 50 μg/mL collagen I; endogenous in cells; host or cells: conditionally immortalized human podocyte cell line (Saleem et al. 2002), differentiated
T1 sequence (Q08345 19-913): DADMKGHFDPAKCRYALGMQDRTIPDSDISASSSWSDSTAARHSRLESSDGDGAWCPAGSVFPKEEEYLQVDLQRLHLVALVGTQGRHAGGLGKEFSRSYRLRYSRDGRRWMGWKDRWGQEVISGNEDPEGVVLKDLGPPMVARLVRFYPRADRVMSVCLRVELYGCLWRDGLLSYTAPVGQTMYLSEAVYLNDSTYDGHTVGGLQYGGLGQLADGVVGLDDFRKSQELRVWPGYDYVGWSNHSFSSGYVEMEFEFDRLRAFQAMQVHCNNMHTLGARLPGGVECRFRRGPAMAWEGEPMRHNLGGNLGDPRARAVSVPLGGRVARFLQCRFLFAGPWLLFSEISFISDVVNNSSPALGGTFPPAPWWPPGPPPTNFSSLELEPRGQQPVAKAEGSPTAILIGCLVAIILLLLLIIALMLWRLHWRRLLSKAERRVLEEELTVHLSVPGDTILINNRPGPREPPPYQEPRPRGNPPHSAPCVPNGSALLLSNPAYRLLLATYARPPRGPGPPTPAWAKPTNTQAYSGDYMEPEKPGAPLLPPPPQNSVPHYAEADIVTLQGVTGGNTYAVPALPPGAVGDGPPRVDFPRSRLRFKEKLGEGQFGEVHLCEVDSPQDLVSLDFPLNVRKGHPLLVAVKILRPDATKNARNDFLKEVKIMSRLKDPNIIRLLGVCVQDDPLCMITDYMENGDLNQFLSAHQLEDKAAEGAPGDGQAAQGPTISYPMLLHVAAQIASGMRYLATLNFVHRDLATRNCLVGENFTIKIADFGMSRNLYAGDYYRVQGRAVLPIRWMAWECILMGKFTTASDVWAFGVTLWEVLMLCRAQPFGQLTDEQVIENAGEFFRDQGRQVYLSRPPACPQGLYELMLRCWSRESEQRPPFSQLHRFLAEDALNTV
Procedure: as §1
Isolation of plasma membranes: Preparation of membrane pellets was performed by ultracentrifugation of cell pellets suspended in homogenization media (15 mM KCl, 1.5 mM MgCl2, 10 mM HEPES, 1 mM DTT) supplemented with protease inhibitors. Effective separation was verified by WB for Na-K ATPase.

[8] = Col4a3−/− mice treated 4 weeks, ezetimibe 5 mg/kg, ramipril 10 mg/kg, vs untreated Col4a3−/−
[9] = Col4a3−/− mice, 4 weeks treatment

**Q.** Which “albumin/creatinine ratio (ACR)” value ([1]; 4-week-old Col4a3−/− mice treated 4 weeks, ezetimibe 5 mg/kg BW oral, ramipril 10 mg/kg BW in drinking water, vs untreated Col4a3−/−) does the source give for `CCOC(=O)[C@H](CCc1ccccc1)N[C@@H](C)C(=O)N1[C@H](C(=O)O)C[C@@H]2CCC[C@@H]21` [ramipril, (2S,3aS,6aS)-1[(S)—N—[(S)-1-Carboxy-3-phenylpropyl]alanyl]octahydrocyclop-enta[b]pyrrole-2-carboxylic acid, 1-ethyl ester] here?
**A.** significant reduction in the albumin/creatinine ratio; also recorded: significant decrease in the albumin/creatinine ratio

**Q.** What about the “serum BUN levels” value [1, 8] of the same molecule?
**A.** significant reduction in the serum BUN levels

**Q.** And the serum creatinine levels [1, 8]?
**A.** significant reduction in the serum creatinine levels

**Q.** What about the “reduction of BUN levels, compared to ezetimibe alone” value [1, 9] of the same molecule?
**A.** superior effect on reducing BUN levels

**Q.** And the “reduction of serum creatinine, compared to ezetimibe alone” value [1, 9]?
**A.** superior effect on reducing serum creatinine levels

**Q.** And the “mesangial expansion (PAS staining, score)” value [2]?
**A.** significant reduction; also recorded: significantly reduced mesangial expansion

**Q.** What about the “renal fibrosis (Picrosirius Red staining)” value [2] of the same molecule?
**A.** significant reduction; also recorded: significantly reduced

**Q.** And the “esterified cholesterol (CE) content in kidney cortexes” value [3]?
**A.** reduces the esterified cholesterol content; also recorded: significantly decreased

**Q.** And the “triglyceride (TG) content in kidney cortexes” value [3]?
**A.** no effect on the Triglyceride content; also recorded: not observed

**Q.** What about the “solubility in polar organic solvents and buffered aqueous solutions” value [4] of the same molecule?
**A.** soluble

**Q.** What about the blood cholesterol levels ([5]; general knowledge stated in the patent) of the same molecule?
**A.** little or no effect

**Q.** And the “peripheral arterial resistance and blood pressure” value ([5]; hypertensive patients)?
**A.** reduction in blood pressure without a compensatory rise in heart rate

**Q.** And the mortality ([5]; patients with clinical signs of congestive heart failure after surviving an acute myocardial infarction)?
**A.** reduce mortality

**Q.** With “Col I: collagen I (Corning), 50 μg/mL, used to treat human podocytes” as the molecule, how does the “cholesterol ester to total cholesterol ratio” value ([6]; Col I treated human podocytes) read?
**A.** mildly decreased

**Q.** And the esterified cholesterol content ([6]; Col I treated human podocytes)?
**A.** increased

**Q.** And the total cholesterol content ([6]; Col I treated human podocytes)?
**A.** increased total cholesterol content

**Q.** What about the cellular triglyceride content ([6]; human podocytes after Col I treatment) of the same molecule?
**A.** increased

**Q.** What about the “number of lipid droplets per cell (BODIPY)” value ([6]; human podocytes, 50 μg/mL collagen, 18 hours, vs Ctrl) of the same molecule?
**A.** increased lipid droplet content

**Q.** What about the “free fatty acid uptake” value ([6]; human podocytes, collagen I treated vs Ctrl) of the same molecule?
**A.** increased

**Q.** What about the “activation of DDR1 at the plasma membrane” value ([7]; human podocytes, plasma membrane fraction) of the same molecule?
**A.** leads to activation of DDR1

**Q.** And the “DDR1 activation (pDDR1)” value ([7]; normal human podocytes)?
**A.** leads to DDR1 activation
